Experimental findings from patent publication US20250109120A1, “INDOLINE DERIVATIVES FOR TREATMENT AND/OR PREVENTION OF TUMOR OR CELL PROLIFERATIVE AND FIBROSIS DISEASES” (NATIONAL TAIWAN UNIVERSITY, priority 2023, published 2025) are described below.

By IC50 is commonly meant the concentration that gives 50% inhibition. For orientation: inhibition means the drop in the measured response relative to a control, in per cent.

Test [1] concerns the target CDK8 (Homo sapiens (Human), UniProt P49336). Kind of test: LanthaScreen Eu Binding Assay, Thermo Fisher SelectScreen kinase service. To be noted: for IC50: read-out: Inhibition of CDK8 IC50; for inhibition at 10 µM: read-out: CDK8 Inhibition percentage at 10 μM. On the procedure: Compounds were tested for kinase inhibitory activity using the Thermo Fisher SelectScreen service (www.thermofisher.com/selectscreen). For CDK8, the LanthaScreen Eu Binding Assay was used. Briefly, the assay employed utilizes a fluorescent tracer to a given kinase. This is used to detect the addition of an anti-tag antibody. When the tracer and antibody bind to the targeted kinase, the Forster resonance energy transfer is measured. When a kinase inhibitor is added to the assay, the tracer/kinase binding will be disrupted, producing low FRET detection and indicating kinase inhibitory activity. Evaluation of kinase activity of additional kinase targets utilized the LanthaScreen binding assay or the Z′-Lyte activity assay provided by Thermo Fisher SelectScreen service. The IC50 values were determined using sequential doses, and the inhibition curves were provided by Thermo Fisher Scientific.
The fragment-based drug design strategy in this study led to optimized CDK8 inhibitors with promising results. CDK8-inhibitory activities of the compounds (a-n) designed by this fragment-based drug design strategy were tested using the SelectScreen kinase service of ThermoFisher Scientific. The inhibitory effects of the 14 compounds and the referenced compound were tested at a concentration of 10 μM.

For test [2], the system named is A549 cells. Kind of test: TGF-β1-induced EMT protein expression, western blot. In kind it is cell-based, human. The conditions noted are these: test compounds 2 μM, senexin A 5 μM, pirfenidone 1 mM; TGF-β1 10 ng/mL. On the procedure:
FIGS. 4A-4B show the inhibition of epithelial-to-mesenchymal transition protein expressions by CDK8 inhibitors in human alveolar epithelial cells. […] Cell lysates were subjected to a Western blot analysis using the indicated antibodies. Results are shown as the mean t SEM from three independent experiments. *p<0.05, and ***p<0.001 compared to the control group; #p<0.05, ##p<0.01, and ###p<0.001 compared to the TGF-β1-treated group. […] Cell viabilities were determined by an MTT assay. Results are shown as the mean t SEM of three independent experiments.
(§1) Cells (106) were incubated for 10 min at 4° C. in lysis buffer (20 mM HEPES at pH 7.4, 2 mM EGTA, 50 mM β-glycerophosphate, 0.1% Triton X-100, 10% glycerol, 1 mM DTT, 1 μg/mL of leupeptin, 5 μg/mL of aprotinin, 1 mM phenylmethylsulfonyl fluoride, and 1 mM sodium orthovanadate), scraped off, incubated on ice for an additional 10 min, and centrifuged at 17,000 g for 30 min at 4° C. Protein samples (20 μg) were then electrophoresed on SDS-polyacrylamide gel electrophoresis (PAGE) gels and transferred to a nitrocellulose membrane, which was then blocked by incubation for 30 min at room temperature with 5% bovine serum albumin (BSA) in Tris-buffered saline with 0.1% Tween-20 (TBST). Immunoblotting was performed by overnight incubation at 4° C. with primary antibodies in TBST, followed by incubation for 1 h at room temperature with horseradish peroxidase (HRP)-conjugated secondary antibodies. Bound antibodies were measured using enhanced chemiluminescence (ECL) reagent (GE Healthcare, UK) and exposed to photographic film.
For orientation: In western blotting, separated proteins are transferred to a membrane and probed.

For test [3], the system named is A549 cells. As to the kind of experiment: Wound-healing migration assay. The conditions noted are these: compounds 2 μM, senexin A 5 μM, pirfenidone 1 mM; TGF-β1 10 ng/mL; 24 or 48 h. It is filed as cell-based, human. The protocol: A549 cells were incubated in six-well plates until reaching 90% confluency, scratched with a pipette tip, and immediately photographed (0 h). Cells were incubated with or without compound k (2 μM), senexin A (5 μM), or pirfenidone (1 mM) for 1 h, then treated with TGF-β1 (10 ng/mL) and allowed to migrate into the wound area for 24 or 48 h, and photographed. Cell migration into the wound was quantified using ImageJ software; the solid line indicates time zero. Quantitative assessment of the mean number of cells in the denuded zone is expressed as the mean±SEM from three independent experiments. **p<0.01 compared to the control group; ##p<0.01 and ###p<0.001 compared to TGF-β1-treated group.
Cells were seeded in six-well plates and cultured to 90% confluency, at which time the cellular monolayer was wounded with a sterile 10-μL pipette tip and washed with culture medium to remove detached cells. Cells were incubated in the presence or absence of test compounds for 24 h and photographed. The wound closure percentages were subsequently determined using ImageJ software (National Institutes of Health, USA).

The test system of test [4] is A549 cells. As to the kind of experiment: TGF-β1-induced oxidative stress (MDA, Nox4). In kind it is cell-based, human. To be noted: compounds 2 μM, TGF-β1 10 ng/ml 24 h. The protocol: A549 cells were incubated with compounds k, b, a (2 μM), senexin A (5 μM), or pirfenidone (1 mM) for 1 h, followed by treatment with 10 ng/ml TGF-β1 for a further 24 h. Malondialdehyde (MDA) (FIG. 10A) and Nox4 (FIG. 10B) levels were detected. ***p<0.001 compared to the control group; #p<0.05, ##p<0.01, and ###p<0.001 compared to the TGF-β1-treated group.
An end product of lipid peroxidation, malondialdehyde (MDA), was measured by spectrophotometry at a wavelength of 532 nm using malondialdehyde bis(dimethyl acetal) as the standard as per the assay protocol (Cell Biolabs, USA).

Test [5] deals with A549 cells. As to the kind of experiment: Nuclear p-Smad3 T179 and RNA polymerase II pS2/S5 after TGF-β1, fractionation and western blot. To be noted: compound k 5 μM, senexin A 5 μM, pirfenidone 1 mM; TGF-β1 10 ng/ml 3 h. It is filed as cell-based, human. The protocol:
FIGS. 8A-8B show the inhibitory effects of cellular distributions of TGF-β1-induced p-Smad3 T179, RNA polymerase II pS2/S5, and Smad3 after treatment with compound k. Human alveolar epithelial A549 cells were incubated with compound k (5 μM), senexin A (5 μM), or pirfenidone (1 mM) for 1 h, followed by stimulation with TGF-β1 (10 ng/ml) for 3 h. Protein expressions in the cytoplasmic and nuclear fractions were subjected to a Western blot analysis using the indicated antibodies. α-Tubulin and histone H3 served as loading controls for the cytoplasmic and nuclear fractions, respectively. Results are shown as the mean±SEM of three independent experiments. **p<0.01 and ***p<0.001 compared to the control group; #p<0.05 and ##p<0.01 compared to the TGF-β1-treated group.
as §1
A Nuclear/Cytosol Fractionation Kit (Biovision, USA) was used to separate the cytosolic and nuclear fractions. […]

Sequence of CDK8 (P49336 whole entry, looked up): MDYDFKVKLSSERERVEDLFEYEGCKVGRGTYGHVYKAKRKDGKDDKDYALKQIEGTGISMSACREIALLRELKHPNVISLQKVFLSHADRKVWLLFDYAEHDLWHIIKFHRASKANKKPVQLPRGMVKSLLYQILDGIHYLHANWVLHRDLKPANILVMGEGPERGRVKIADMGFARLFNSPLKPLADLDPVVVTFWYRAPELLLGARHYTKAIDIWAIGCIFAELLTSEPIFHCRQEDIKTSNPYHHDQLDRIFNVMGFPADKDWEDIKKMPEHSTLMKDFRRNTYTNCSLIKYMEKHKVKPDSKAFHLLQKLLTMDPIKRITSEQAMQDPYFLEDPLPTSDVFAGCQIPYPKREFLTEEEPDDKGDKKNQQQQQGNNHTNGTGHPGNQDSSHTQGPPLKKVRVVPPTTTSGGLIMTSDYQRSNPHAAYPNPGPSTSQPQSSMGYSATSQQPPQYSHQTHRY
Sequence of CDK8 (P24863 whole entry partner, looked up): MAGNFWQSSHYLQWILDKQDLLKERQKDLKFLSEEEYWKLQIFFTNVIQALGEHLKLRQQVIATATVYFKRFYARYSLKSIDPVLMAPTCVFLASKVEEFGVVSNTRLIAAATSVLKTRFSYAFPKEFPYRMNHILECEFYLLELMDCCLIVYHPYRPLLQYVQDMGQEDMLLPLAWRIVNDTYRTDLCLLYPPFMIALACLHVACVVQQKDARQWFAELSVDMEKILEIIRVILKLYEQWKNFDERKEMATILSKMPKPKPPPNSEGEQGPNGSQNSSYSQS

Regarding `CNC(=O)c1ccc(NS(=O)(=O)c2ccc3c(c2)C(=C(C)C)C(=O)N3)cc1F` [Compound l, 2-Fluoro-N-methyl-4-((2-oxo-3-(propan-2-ylidene)indoline)-5-sulfonamido)benzamide], in test [1], the “CDK8 Inhibition percentage at 10 μM” value turned out to be 92% and the IC50 turned out to be 652 nM.

Regarding `CC(C)=C1C(=O)Nc2ccc(S(=O)(=O)Nc3nnc(-c4ccccc4)s3)cc21` [Compound g, 2-Oxo-N-(5-Phenyl-1,3,4-thiadiazol-2-yl)-3-(propan-2-ylidene) indoline-5-sulfonamide], in test [1], the “CDK8 Inhibition percentage at 10 μM” value was 99% and the IC50 was 338 nM.

`CC(C)=C1C(=O)Nc2ccc(S(=O)(=O)Nc3ccc(C)c(Nc4nccc(-c5cccnc5)n4)c3)cc21` [Compound m, N-(4-Methyl-3-((4-(pyridin-3-yl)pyrimidin-2-yl)amino)phenyl)-2-oxo-3-(propan-2-ylidene)indoline-5-sulfonamide]: the inhibition at 10 µM in test [1] stood at 46%.

In the case of `CC(C)=C1C(=O)Nc2ccc(S(=O)(=O)Nc3cc(-c4ccc(C)cc4)[nH]n3)cc21` [Compound f, 2-Oxo-3-(propan-2-ylidene)-N-(5-(p-tolyl)-1H-pyrazol-3-yl) indoline-5-sulfonamide], in test [1], the “CDK8 Inhibition percentage at 10 μM” value came to 89% and the IC50 turned out to be 798 nM.

As to `CC(C)=C1C(=O)Nc2ccc(S(=O)(=O)Nc3ccc(C(=O)c4ccccc4)cc3)cc21` [Compound d, N-(4-Benzoylphenyl)-2-oxo-3-(propan-2-ylidene)indoline-5-sulfonamide], in test [1], the inhibition at 10 µM was determined as 99% and the IC50 amounted to 380 nM.

On to `CC(=O)c1cccc(NS(=O)(=O)c2ccc3c(c2)C(=C(C)C)C(=O)N3)c1` [Reference Compound, N-(3-acetylphenyl)-2-oxo-3-(propan-2-ylidene)-indoline-5-sulfonamide, reference compound], for which, in test [1], the inhibition at 10 µM was 87% and the IC50 turned out to be 1680 nM.

Regarding `CC(C)=C1C(=O)Nc2ccc(S(=O)(=O)Nc3ccc(-n4ccnc4)cc3)cc21` [Compound i, N-(4-(1H-imidazol-1-yl)phenyl)-2-oxo-3-(propan-2-ylidene) indoline-5-sulfonamide], in test [1], the “CDK8 Inhibition percentage at 10 μM” value is 92% and the IC50 amounted to 945 nM.

Regarding `CC(C)=C1C(=O)Nc2ccc(S(=O)(=O)Nc3ccc(Nc4ccccc4)cc3)cc21` [Compound b, 2-Oxo-N-(4-(phenylamino)phenyl)-3-(propan-2-ylidene)indoline-5-sulfonamide], the “TGF-β1-triggered EMT protein expressions” value in test [2] is given as “slight reduction”. The “inhibition of cell migration” value in test [3] was “less inhibition”. Further, the “TGF-β1-caused oxidative stress (MDA and Nox4 levels)” value in test [4] was “less-potent inhibition”. Besides, in test [1], the inhibition at 10 µM was 76% and the IC50 was found to be 1570 nM.

Regarding `CC(C)=C1C(=O)Nc2ccc(S(=O)(=O)Nc3cc(-c4ccccc4)[nH]n3)cc21` [Compound e, 2-Oxo-N-(5-phenyl-1H-pyrazol-3-yl)-3-(propan-2-ylidene)indoline-5-sulfonamide], in test [1], the inhibition at 10 µM is 82% and the IC50 turned out to be 1640 nM.

`CC(C)=C1C(=O)Nc2ccc(S(=O)(=O)Nc3nc4ccccc4s3)cc21` [Compound h, N-(Benzo[d]thiazol-2-yl)-2-oxo-3-(propan-2-ylidene)indoline-5-sulfonamide]: in test [1], the inhibition at 10 µM was 91% and the IC50 is 870 nM.

`CC(C)=C1C(=O)Nc2ccc(S(=O)(=O)Nc3ccc(Oc4ccc([N+](=O)[O-])cc4)cc3)cc21` [Compound a, N-(4-(4-Nitrophenoxy)phenyl)-2-oxo-3-(propan-2-ylidene)indoline-5-sulfonamide]: in test [2], the “TGF-β1-triggered EMT protein expressions” value is “no significant reduction”. Further, the “inhibition of cell migration” value in test [3] is “less inhibition”. Moreover, the “TGF-β1-caused oxidative stress (MDA and Nox4 levels)” value in test [4] was “less-potent inhibition”. Further, the inhibition at 10 µM in test [1] amounted to 48%.

For the molecule `CC(C)=C1C(=O)Nc2ccc(S(=O)(=O)Nc3ccc(NC(=O)c4ccccc4)cc3)cc21` [Compound c, N-(4-((2-Oxo-3-(propan-2-ylidene)indoline)-5-sulfonamido)phenyl)benzamide], the “CDK8 Inhibition percentage at 10 μM” value in test [1] amounted to 33%.

Turning to `CC(C)=C1C(=O)Nc2ccc(S(=O)(=O)Nc3cccc4c(=O)[nH][nH]c(=O)c34)cc21` [Compound n, N-(1,4-Dioxo-1,2,3,4-tetrahydrophthalazin-5-yl)-2-oxo-3-(propan-2-ylidene)indoline-5-sulfonamide], in test [1], the inhibition at 10 µM is 74% and the IC50 was 3000 nM.

Regarding `Cc1ccc(=O)n(-c2ccccc2)c1` [pirfenidone, reference compound], the “TGF-β1-triggered EMT protein expressions” value in test [2] is “slight inhibition”. In addition, the “phosphorylation of p-Smad3 T179 and RNA Pol II pSer2/5” value in test [5] is listed as “less-potent inhibition”.

Turning to `CNC(=O)c1cc(Oc2ccc(NS(=O)(=O)c3ccc4c(c3)C(=C(C)C)C(=O)N4)cc2)ccn1` [Compound j, N-Methyl-4-(4-((2-oxo-3-(propan-2-ylidene)indoline)-5-sulfonamido)phenoxy)picolinamide], in test [1], the “CDK8 Inhibition percentage at 10 μM” value came out at 85% and the IC50 was determined as 1240 nM.
